Here are results for three molecules from patent publication US20070249686A1, “Modulators of Crth-2 Receptor Activity for the Treatment of Prostaglandin D2 Mediated Diseases” (ASTRAZENECA AB, priority 2004, published 2007).

As usually defined, the pIC50 is the negative decadic logarithm of the IC50, by convention in mol/L. The low end stands for a large IC50, the high end for a small IC50.

The structures appear in SMILES notation. pIC50: −log10 of the molar value.

The target of this test is T1, CRTh2 (Homo sapiens, UniProt Q9Y5Y4).
T1 construct: expressed in transfected cells; host or cells: HEK cells (membrane preparation)
T1 sequence (Q9Y5Y4 1-395): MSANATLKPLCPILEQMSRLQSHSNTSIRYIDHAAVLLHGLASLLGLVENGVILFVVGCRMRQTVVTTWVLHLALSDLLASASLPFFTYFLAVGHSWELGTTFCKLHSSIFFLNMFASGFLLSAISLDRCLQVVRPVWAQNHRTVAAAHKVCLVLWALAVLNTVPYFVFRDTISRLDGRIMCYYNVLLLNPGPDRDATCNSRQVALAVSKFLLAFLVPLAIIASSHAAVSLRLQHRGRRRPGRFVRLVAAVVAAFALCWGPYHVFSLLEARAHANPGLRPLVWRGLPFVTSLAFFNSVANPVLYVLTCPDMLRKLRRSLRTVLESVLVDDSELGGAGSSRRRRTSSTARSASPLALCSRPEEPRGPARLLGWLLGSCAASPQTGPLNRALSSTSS
Kind of test: Ligand binding assay: [3H]PGD2 binding to membranes of HEK cells expressing rhCRTh2/Gα16 (SPA beads). As to conditions: [3H]PGD2 displacement, HEK cell membranes containing CRTh2, SPA, 2 hours at room temperature. Here is the method: [hu 3H]PGD2 was purchased from Perkin Elmer Life Sciences with a specific activity of 100-210 Ci/mmol. All other chemicals were of analytical grade.
HEK cells expressing rhCRTh2/Gα16 were routinely maintained in DMEM containing 10% Foetal Bovine Serum (HyClone), 1 mg/ml geneticin, 2 mM L-glutamine and 1% non-essential amino acids. For the preparation of membranes, the adherent transfected HEKcells were grown to confluence in two layer tissue culture factories (Fisher, catalogue number TKT-170-070E). Maximal levels of receptor expression were induced by addition of […] sodium butyrate for the last 18 hours of culture. The adherent cells were washed once with phosphate buffered saline (PBS, 50 ml per cell factory) and detached by the addition of 50 ml per cell factory of ice-cold membrane homogenisation buffer [20 mM HEPES (pH 7.4), 0.1 mM dithiothreitol, 1 mM EDTA, 0.1 mM phenyl methyl sulphonyl fluoride and 100 μg/ml bacitracin]. […] The final pellet was re-suspended in 4 ml of membrane homogenisation buffer per cell factory used and the protein content determined. […]
All assays were performed in Corning clear bottomed, white 96-well NBS plates (Fisher). […] (The optimum coating concentrations were determined for each batch of membranes) The beads were pelleted by centrifugation (800×g for 7minutes at 4° C.), washed once with assay buffer (50 mM HEPES pH 7.4 containing 5 mM magnesium chloride) and finally re-suspended in assay buffer at a bead concentration of 10 mg/ml.
Each assay contained 20 μl of 6.25 nM [^3H]PGD2, 20 μl membrane saturated SPA beads both in assay buffer and 10 μl of compound solution or 13,14-dihydro-15-keto prostaglandin D2 (DK-PGD2, for determination of non-specific binding, Cayman chemical company). […] The assay plate was incubated at room temperature for 2 hours and counted on a Wallac Microbeta liquid scintillation counter (1 minute per well).
Take `CS(=O)(=O)c1ccc(-c2cc(C(F)(F)F)ccc2CCC(=O)O)cc1C(F)(F)F` [Example 31, 3-[4′-(Methylsulfonyl)-3′,5-bis(trifluoromethyl)biphenyl-2-yl]propanoic acid]: the pIC50 is 7.40.
Take `CCS(=O)(=O)c1ccc(-c2nc(C)ccc2OCC(=O)O)c(C)c1` [Example 11, ({2-[4-(Ethylsulfonyl)-2-methylphenyl]-6-methylpyridin-3-yl}oxy)acetic acid]: the pIC50 was 7.20.
The figure for `Cc1nn(S(=O)(=O)N(C)C)cc1-c1cc(C(F)(F)F)ccc1O[C@@H](C)C(=O)O` [Example 22, (2S)-2-[2-{1-[(Dimethylamino)sulfonyl]-3-methyl-1H-pyrazol-4-yl}-4-(trifluoromethyl)phenoxy]propanoic acid] is 8.00.
